Assay results reported in ChEMBL document CHEMBL4680171, “Oxadiazolylthiazoles as novel and selective antifungal agents” (Eur J Med Chem, 2020).
Values after ≈ are worked out from the molar mass of the structure shown.

Experiments:
Staphylococcus aureus = experiment: Antibacterial activity against methicillin resistant Staphylococcus aureus subsp. aureus USA300 assessed as reduction in bacterial growth by CLSI based broth microdilution method; format: functional
Escherichia coli [1] = experiment: Antibacterial activity against Escherichia coli JW55031 harboring tolC mutation assessed as reduction in bacterial growth by CLSI based broth microdilution method; format: functional
Escherichia coli [2] = experiment: Antibacterial activity against Escherichia coli BW25113 assessed as reduction in bacterial growth by CLSI based broth microdilution method; format: functional
Clostridioides difficile = experiment: Antibacterial activity against Clostridium difficile BAA1870 assessed as reduction in bacterial growth by CLSI based broth microdilution method; format: functional
Candida albicans [3] = experiment: Antifungal activity against Candida albicans SS5314 assessed as reduction in fungal growth by CLSI based broth microdilution method; format: functional
Candida albicans [4] = experiment: Antifungal activity against Candida albicans ATCC 10231 assessed as reduction in fungal growth incubated for 24 hrs by CLSI based broth microdilution method; format: functional
Candida albicans [5] = experiment: Antifungal activity against fluconazole-resistant Candida albicans NR29448 assessed as reduction in fungal growth incubated for 24 hrs by CLSI based broth microdilution method; format: functional
[Candida] auris [6] = Antifungal activity against fluconazole-resistant Candida auris 381 assessed as reduction in fungal growth incubated for 24 hrs by CLSI based broth microdilution method; format: functional; conditions: Candidozyma auris
[Candida] auris [7] = Antifungal activity against fluconazole-resistant Candida auris 383 assessed as reduction in fungal growth incubated for 24 hrs by CLSI based broth microdilution method; format: functional; conditions: Candidozyma auris
[Candida] auris [8] = Antifungal activity against fluconazole-resistant Candida auris 384 assessed as reduction in fungal growth incubated for 24 hrs by CLSI based broth microdilution method; format: functional; conditions: Candidozyma auris
Nakaseomyces glabratus [9] = experiment: Antifungal activity against Candida glabrata ATCC 66032 assessed as reduction in fungal growth incubated for 24 hrs by CLSI based broth microdilution method; format: functional
Nakaseomyces glabratus [10] = experiment: Antifungal activity against Candida glabrata ATCC MYA-2950 assessed as reduction in fungal growth incubated for 24 hrs by CLSI based broth microdilution method; format: functional
Candida parapsilosis [11] = experiment: Antifungal activity against Candida parapsilosis ATCC 22019 assessed as reduction in fungal growth incubated for 24 hrs by CLSI based broth microdilution method; format: functional; conditions: Lodderomyces parapsilosis
Candida parapsilosis [12] = experiment: Antifungal activity against Candida parapsilosis CAB 502638 assessed as reduction in fungal growth incubated for 24 hrs by CLSI based broth microdilution method; format: functional; conditions: Lodderomyces parapsilosis
Pichia kudriavzevii [13] = experiment: Antifungal activity against Candida krusei CAB 396420 assessed as reduction in fungal growth incubated for 24 hrs by CLSI based broth microdilution method; format: functional
Pichia kudriavzevii [14] = experiment: Antifungal activity against Candida krusei ATCC 34135 assessed as reduction in fungal growth incubated for 24 hrs by CLSI based broth microdilution method; format: functional
Cryptococcus neoformans [15] = experiment: Antifungal activity against Cryptococcus neoformans NR41298 assessed as reduction in fungal growth incubated for 48 hrs by CLSI based broth microdilution method; format: functional
Cryptococcus neoformans [16] = experiment: Antifungal activity against Cryptococcus neoformans NR41300 assessed as reduction in fungal growth incubated for 48 hrs by CLSI based broth microdilution method; format: functional
Cryptococcus neoformans [17] = experiment: Antifungal activity against Cryptococcus neoformans NR48770 assessed as reduction in fungal growth incubated for 48 hrs by CLSI based broth microdilution method; format: functional
[18] = system: Cryptococcus gattii species complex; experiment: Antifungal activity against Cryptococcus gattii NR43210 assessed as reduction in fungal growth incubated for 48 hrs by CLSI based broth microdilution method; format: functional, Cryptococcus bacillisporus
[19] = system: Cryptococcus gattii species complex; experiment: Antifungal activity against Cryptococcus gattii NR43209 assessed as reduction in fungal growth incubated for 48 hrs by CLSI based broth microdilution method; format: functional, Cryptococcus bacillisporus
Lactobacillus gasseri = experiment: Antibacterial activity against Lactobacillus gasseri HM-400 assessed as reduction in bacterial growth by CLSI based assay
Lacticaseibacillus casei = experiment: Antibacterial activity against Lactobacillus casei HM-334 assessed as reduction in bacterial growth by CLSI based assay; format: organism-based
Lactobacillus crispatus = experiment: Antibacterial activity against Lactobacillus crispatus HM-370 assessed as reduction in bacterial growth by CLSI based assay
[20] = Cytotoxicity against African green monkey Vero cells assessed as reduction in cell viability incubated for 2 hrs by MTS assay; format: cell-based; conditions: chlorocebus sabaeus
Candida albicans [21] = experiment: Fungicidal activity against Candida albicans SS5314 assessed as eradication of fungal count at 5XMIC measured after 2 hrs by time kill assay relative to control; format: functional
Vero = experiment: Cytotoxicity against African green monkey Vero cells assessed as reduction in cell viability at 16 ug/ml incubated for 2 hrs by MTS assay; format: cell-based; conditions: chlorocebus sabaeus, dose 16 µg/ml
Candida albicans [22] = experiment: Antifungal activity against Candida albicans SS5314 assessed as reduction in fungal growth incubated for 24 hrs by CLSI based broth microdilution method; format: functional

Q: Which MIC (Staphylococcus aureus) does the source give for `Cc1nc(-c2ccc(C(C)(C)C)cc2)sc1-c1nnc(N2CCC[C@@H]2CO)o1` here?
A: > 64 µg/mL

Q: What about the MIC (Escherichia coli [1]) of the same compound?
A: > 64 µg/mL

Q: And the MIC (Escherichia coli [2])?
A: > 64 µg/mL

Q: And the MIC (Clostridioides difficile)?
A: 32 µg/mL (≈ 80.3 µM)

Q: And the MIC (Candida albicans [3])?
A: > 64 µg/mL

Q: With `Cc1nc(-c2ccc(C(C)(C)C)cc2)sc1-c1nnc(N2CC[C@H](N(C)C)C2)o1` as the compound, how does the MIC (Staphylococcus aureus) read?
A: > 64 µg/mL

Q: What about the MIC (Escherichia coli [1]) of the same compound?
A: > 64 µg/mL

Q: And the MIC (Escherichia coli [2])?
A: > 64 µg/mL

Q: What about the MIC (Clostridioides difficile) of the same compound?
A: 32 µg/mL (≈ 77.8 µM)

Q: And the MIC (Candida albicans [3])?
A: > 64 µg/mL

Q: For `Cc1nc(-c2ccc(C(C)(C)C)cc2)sc1-c1nnc(NC[C@@H](O)CO)o1`, which MIC (Staphylococcus aureus) is on record?
A: > 64 µg/mL

Q: What about the MIC (Escherichia coli [1]) of the same compound?
A: > 64 µg/mL

Q: And the MIC (Escherichia coli [2])?
A: > 64 µg/mL

Q: What about the MIC (Clostridioides difficile) of the same compound?
A: 32 µg/mL (≈ 82.4 µM)

Q: And the MIC (Candida albicans [3])?
A: > 64 µg/mL

Q: With `Cc1nc(-c2ccc(C(C)(C)C)cc2)sc1-c1nnc(NC[C@H](O)CO)o1` as the compound, how does the MIC (Staphylococcus aureus) read?
A: > 64 µg/mL

Q: And the MIC (Escherichia coli [1])?
A: 32 µg/mL (≈ 82.4 µM)

Q: And the MIC (Escherichia coli [2])?
A: > 64 µg/mL

Q: What about the MIC (Clostridioides difficile) of the same compound?
A: 16 µg/mL (≈ 41.2 µM)

Q: And the MIC (Candida albicans [3])?
A: > 64 µg/mL

Q: For `C[C@@H]1[C@H](O)[C@@H](C)/C=C/C=C/C=C/C=C/C=C/C=C/C=C/[C@H](O[C@@H]2O[C@H](C)[C@@H](O)[C@H](N)[C@@H]2O)C[C@@H]2O[C@](O)(C[C@@H](O)C[C@@H](O)[C@H](O)CC[C@@H](O)C[C@@H](O)CC(=O)O[C@H]1C)C[C@H](O)[C@H]2C(=O)O` [AMPHOTERICIN B], which MIC (Candida albicans [3]) is on record?
A: 1 µg/mL (≈ 1.08 µM)

Q: What about the MIC (Candida albicans [4]) of the same compound?
A: 1 µg/mL (≈ 1.08 µM)

Q: What about the MIC (Candida albicans [5]) of the same compound?
A: 1 µg/mL (≈ 1.08 µM)

Q: What about the MIC ([Candida] auris [6]) of the same compound?
A: 0.5 µg/mL (≈ 0.541 µM)

Q: And the MIC ([Candida] auris [7])?
A: 1 µg/mL (≈ 1.08 µM)

Q: What about the MIC ([Candida] auris [8]) of the same compound?
A: 2 µg/mL (≈ 2.16 µM)

Q: What about the MIC (Nakaseomyces glabratus [9]) of the same compound?
A: 2 µg/mL (≈ 2.16 µM)

Q: What about the MIC (Nakaseomyces glabratus [10]) of the same compound?
A: 1 µg/mL (≈ 1.08 µM)

Q: And the MIC (Candida parapsilosis [11])?
A: 0.5 µg/mL (≈ 0.541 µM)

Q: What about the MIC (Candida parapsilosis [12]) of the same compound?
A: 0.5 µg/mL (≈ 0.541 µM)

Q: What about the MIC (Pichia kudriavzevii [13]) of the same compound?
A: 2 µg/mL (≈ 2.16 µM)

Q: What about the MIC (Pichia kudriavzevii [14]) of the same compound?
A: 2 µg/mL (≈ 2.16 µM)

Q: What about the MIC (Cryptococcus neoformans [15]) of the same compound?
A: 1 µg/mL (≈ 1.08 µM)

Q: And the MIC (Cryptococcus neoformans [16])?
A: 1 µg/mL (≈ 1.08 µM)

Q: What about the MIC (Cryptococcus neoformans [17]) of the same compound?
A: 1 µg/mL (≈ 1.08 µM)

Q: And the MIC [18]?
A: 1 µg/mL (≈ 1.08 µM)

Q: And the MIC [19]?
A: 1 µg/mL (≈ 1.08 µM)

Q: And the MIC (Lactobacillus gasseri)?
A: > 128 µg/mL

Q: And the MIC (Lacticaseibacillus casei)?
A: > 128 µg/mL

Q: What about the MIC (Lactobacillus crispatus) of the same compound?
A: > 128 µg/mL

Q: And the CC50 at 2 h [20]?
A: 8 µg/mL (≈ 8.66 µM)

Q: What about the Activity (Candida albicans [21]) of the same compound?
A: 100%

Q: What about the Activity (Vero) of the same compound?
A: Toxic

Q: What about the MIC (Candida albicans [22]) of the same compound?
A: 1 µg/mL (≈ 1.08 µM)

Q: With `Cc1nc(-c2ccc(C(C)(C)C)cc2)sc1-c1nnc(NCCCO)o1` as the compound, how does the MIC (Staphylococcus aureus) read?
A: > 64 µg/mL

Q: What about the MIC (Escherichia coli [1]) of the same compound?
A: > 64 µg/mL

Q: What about the MIC (Escherichia coli [2]) of the same compound?
A: > 64 µg/mL

Q: What about the MIC (Clostridioides difficile) of the same compound?
A: 32 µg/mL (≈ 85.9 µM)

Q: What about the MIC (Candida albicans [3]) of the same compound?
A: > 64 µg/mL

Q: Which MIC (Staphylococcus aureus) does the source give for `Cc1nc(-c2ccc(C(C)(C)C)cc2)sc1-c1nnc(NCC2CCCCN2)o1` (stereo unspecified) here?
A: 32 µg/mL (≈ 77.8 µM)

Q: What about the MIC (Escherichia coli [1]) of the same compound?
A: 16 µg/mL (≈ 38.9 µM)

Q: What about the MIC (Escherichia coli [2]) of the same compound?
A: > 64 µg/mL

Q: And the MIC (Clostridioides difficile)?
A: 16 µg/mL (≈ 38.9 µM)

Q: What about the MIC (Candida albicans [3]) of the same compound?
A: > 64 µg/mL

Q: For GENTAMICIN, which MIC (Escherichia coli [1]) is on record?
A: < 0.5 µg/mL

Q: What about the MIC (Escherichia coli [2]) of the same compound?
A: < 0.5 µg/mL

Q: Which MIC (Staphylococcus aureus) does the source give for `Cc1nc(-c2ccc(C(C)(C)C)cc2)sc1-c1nnc(NCC(=N)N)o1` here?
A: > 64 µg/mL

Q: What about the MIC (Escherichia coli [1]) of the same compound?
A: > 64 µg/mL

Q: And the MIC (Escherichia coli [2])?
A: > 64 µg/mL

Q: And the MIC (Clostridioides difficile)?
A: 64 µg/mL (≈ 173 µM)

Q: What about the MIC (Candida albicans [3]) of the same compound?
A: > 64 µg/mL

Q: Which results are given for `Cc1nc(-c2ccc(C(C)(C)C)cc2)sc1-c1nnc(N2CCC[C@H]2CO)o1`?
A: MIC (Staphylococcus aureus): > 64 µg/mL; MIC (Escherichia coli [1]): > 64 µg/mL; MIC (Escherichia coli [2]): > 64 µg/mL; MIC (Clostridioides difficile): 16 µg/mL (≈ 40.1 µM); MIC (Candida albicans [3]): > 64 µg/mL

Q: For `Cc1nc(-c2ccc(C(C)(C)C)cc2)sc1-c1nnc(N[C@H]2CC[C@H](N)CC2)o1`, which MIC (Staphylococcus aureus) is on record?
A: 32 µg/mL (≈ 77.8 µM)

Q: And the MIC (Escherichia coli [1])?
A: 32 µg/mL (≈ 77.8 µM)

Q: And the MIC (Escherichia coli [2])?
A: > 64 µg/mL

Q: And the MIC (Clostridioides difficile)?
A: 8 µg/mL (≈ 19.4 µM)

Q: And the MIC (Candida albicans [3])?
A: 8 µg/mL (≈ 19.4 µM)

Q: Which MIC (Staphylococcus aureus) does the source give for `Cc1nc(-c2ccc(C(C)(C)C)cc2)sc1-c1nnc(NCCN)o1` here?
A: 8 µg/mL (≈ 22.4 µM)

Q: What about the MIC (Escherichia coli [1]) of the same compound?
A: > 64 µg/mL

Q: What about the MIC (Escherichia coli [2]) of the same compound?
A: > 64 µg/mL

Q: What about the MIC (Clostridioides difficile) of the same compound?
A: > 64 µg/mL

Q: And the MIC (Candida albicans [3])?
A: 32 µg/mL (≈ 89.5 µM)

Q: What does the source list for `Cc1nc(-c2ccc(C(C)(C)C)cc2)sc1-c1nnc(NCCN(C)C)o1`?
A: MIC (Staphylococcus aureus): 64 µg/mL (≈ 166 µM); MIC (Escherichia coli [1]): 32 µg/mL (≈ 83 µM); MIC (Escherichia coli [2]): > 64 µg/mL; MIC (Clostridioides difficile): 16 µg/mL (≈ 41.5 µM); MIC (Candida albicans [3]): 32 µg/mL (≈ 83 µM)
